Results reported in ChEMBL document CHEMBL1135517, “N(6)-alkyl-2-alkynyl derivatives of adenosine as potent and selective agonists at the human adenosine A(3) receptor and a starting point for searching A(2B) ligands” (J Med Chem, 2002).
pEC50, pKi: −log10 of the molar value.

What was measured:
Adenosine receptor A1 = biological target: T1, Adenosine receptor A1 (Homo sapiens, UniProt P30542); experiment: Binding affinity against Human recombinant Adenosine A1 receptor stably transfected in CHO cells using [3H]CCPA as radioligand; assay type: cell-based
T1 sequence (P30542 whole entry): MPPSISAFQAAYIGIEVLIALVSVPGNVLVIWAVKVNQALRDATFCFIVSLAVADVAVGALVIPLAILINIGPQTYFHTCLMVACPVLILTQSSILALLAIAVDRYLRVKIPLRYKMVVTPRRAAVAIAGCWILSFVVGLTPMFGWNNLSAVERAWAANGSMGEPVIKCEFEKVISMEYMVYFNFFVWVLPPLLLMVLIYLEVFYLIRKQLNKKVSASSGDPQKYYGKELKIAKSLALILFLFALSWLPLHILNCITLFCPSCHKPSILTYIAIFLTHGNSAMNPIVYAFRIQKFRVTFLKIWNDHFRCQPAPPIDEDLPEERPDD

Adenosine receptor A2a = Adenosine receptor A2a (Homo sapiens, UniProt P29274); experiment: Binding affinity against Human recombinant Adenosine A2A receptor stably transfected in CHO cells using [3H]NECA as radioligand; assay type: cell-based
Adenosine receptor A3 = biological target: T2, Adenosine receptor A3 (Homo sapiens, UniProt P0DMS8); experiment: Binding affinity against Human recombinant Adenosine A3 receptor stably transfected in CHO cells using [3H]NECA as radioligand; assay type: cell-based
T2 sequence (P0DMS8 whole entry): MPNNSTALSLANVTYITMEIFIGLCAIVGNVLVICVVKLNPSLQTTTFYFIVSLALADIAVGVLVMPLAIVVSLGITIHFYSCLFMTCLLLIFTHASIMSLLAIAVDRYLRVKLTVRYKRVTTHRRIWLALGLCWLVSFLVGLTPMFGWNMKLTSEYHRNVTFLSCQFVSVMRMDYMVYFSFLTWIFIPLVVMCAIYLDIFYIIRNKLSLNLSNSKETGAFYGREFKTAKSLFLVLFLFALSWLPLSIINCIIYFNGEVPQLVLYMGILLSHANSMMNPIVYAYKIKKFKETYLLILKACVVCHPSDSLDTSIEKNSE

Adenosine receptor A2b = biological target: T3, Adenosine receptor A2b (Homo sapiens, UniProt P29275); experiment: Receptor-stimulated activity in CHO cells stably transfected with Human recombinant Adenosine A2B receptor measuring adenylyl cyclase activity
T3 sequence (P29275 whole entry): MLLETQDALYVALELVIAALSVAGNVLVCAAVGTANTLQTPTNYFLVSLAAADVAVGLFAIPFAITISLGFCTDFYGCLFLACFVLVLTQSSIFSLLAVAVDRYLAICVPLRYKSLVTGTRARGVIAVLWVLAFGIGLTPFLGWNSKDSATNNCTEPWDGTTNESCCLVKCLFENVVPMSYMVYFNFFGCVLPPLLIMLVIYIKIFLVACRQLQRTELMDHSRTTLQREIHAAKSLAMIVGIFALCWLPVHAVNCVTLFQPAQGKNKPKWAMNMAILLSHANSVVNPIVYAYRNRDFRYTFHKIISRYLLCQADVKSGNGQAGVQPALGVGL

Sequence of Adenosine receptor A2a (P29274 whole entry): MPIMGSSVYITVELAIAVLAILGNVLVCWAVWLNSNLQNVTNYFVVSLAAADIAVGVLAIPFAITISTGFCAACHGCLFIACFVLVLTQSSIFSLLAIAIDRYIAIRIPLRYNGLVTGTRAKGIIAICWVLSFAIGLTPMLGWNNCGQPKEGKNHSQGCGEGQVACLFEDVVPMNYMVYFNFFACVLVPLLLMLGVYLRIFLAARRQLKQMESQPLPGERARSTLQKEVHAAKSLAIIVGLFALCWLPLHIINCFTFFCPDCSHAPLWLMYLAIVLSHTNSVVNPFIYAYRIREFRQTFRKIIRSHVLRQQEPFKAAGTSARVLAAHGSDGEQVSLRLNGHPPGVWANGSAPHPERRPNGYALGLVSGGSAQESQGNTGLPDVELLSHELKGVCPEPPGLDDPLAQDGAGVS

SMILES | pKi (Adenosine receptor A1) | pKi (Adenosine receptor A2a) | pKi (Adenosine receptor A3) | pEC50 (Adenosine receptor A2b)
CCNC(=O)[C@H]1O[C@@H](n2cnc3c(N)nc(C#CC(O)c4ccccc4)nc32)[C@H](O)[C@@H]1O (mixture of isomers) | 8.57 | 8.51 | 9.38 | 5.96
CCCCC#Cc1nc(N)c2ncn([C@@H]3O[C@H](CO)[C@@H](O)[C@H]3O)c2n1 | – | – | 8.33 | 4.00
CCNC(=O)[C@H]1O[C@@H](n2cnc3c(N)nc(C#C[C@H](O)c4ccccc4)nc32)[C@H](O)[C@@H]1O | 8.72 | 7.41 | 8.26 | 5.62
CC(C)Nc1nc(C#C[C@H](O)c2ccccc2)nc2c1ncn2[C@@H]1O[C@H](CO)[C@@H](O)[C@H]1O | 8.96 | 6.49 | 8.31 | 5.05
CNc1nc(C#C[C@H](O)c2ccccc2)nc2c1ncn2[C@@H]1O[C@H](CO)[C@@H](O)[C@H]1O | 8.15 | 5.81 | 8.92 | 4.00
CCNc1nc(C#C[C@H](O)c2ccccc2)nc2c1ncn2[C@@H]1O[C@H](CO)[C@@H](O)[C@H]1O | 8.66 | 5.93 | 8.85 | 5.04
CC(C)Nc1nc(C#CC(O)c2ccccc2)nc2c1ncn2[C@@H]1O[C@H](CO)[C@@H](O)[C@H]1O (some centres not stated) | 8.82 | 7.02 | 8.64 | 5.21
Nc1nc(C#Cc2ccccc2)nc2c1ncn2[C@@H]1O[C@H](CO)[C@@H](O)[C@H]1O | 6.41 | 6.44 | 7.80 | < 4.00
CCCCC#Cc1nc(NC)c2ncn([C@@H]3O[C@H](CO)[C@@H](O)[C@H]3O)c2n1 | 6.49 | 5.91 | 8.96 | 4.00
CC(C)(C)OC(=O)C1CCCN1C[C@@H](O)[C@H](Cc1ccccc1)NC(=O)[C@H](CC(N)=O)NC(=O)OCc1ccccc1 (some centres not stated) | 7.22 | – | 8.62 | 5.21
CNc1nc(C#Cc2ccccc2)nc2c1ncn2[C@@H]1O[C@H](CO)[C@@H](O)[C@H]1O | 5.77 | 5.07 | 8.47 | 4.00
CCCCC#Cc1nc(NC(C)C)c2ncn([C@@H]3O[C@H](CO)[C@@H](O)[C@H]3O)c2n1 | 7.37 | 6.71 | 8.01 | 4.00
CC(C)Nc1nc(C#Cc2ccccc2)nc2c1ncn2[C@@H]1O[C@H](CO)[C@@H](O)[C@H]1O | 6.37 | 5.96 | 7.77 | < 4.00

Results, then the compound that gave them:

pKi (Adenosine receptor A1) | pKi (Adenosine receptor A2a) | pKi (Adenosine receptor A3) | pEC50 (Adenosine receptor A2b) | SMILES
8.68 | 8.70 | 9.12 | 6.66 | CCNC(=O)[C@H]1O[C@@H](n2cnc3c(N)nc(C#C[C@@H](O)c4ccccc4)nc32)[C@H](O)[C@@H]1O
8.02 | 6.79 | 9.28 | 5.59 | CNc1nc(C#C[C@@H](O)c2ccccc2)nc2c1ncn2[C@@H]1O[C@H](CO)[C@@H](O)[C@H]1O
8.47 | 7.19 | 9.70 | 6.14 | CCNc1nc(C#C[C@@H](O)c2ccccc2)nc2c1ncn2[C@@H]1O[C@H](CO)[C@@H](O)[C@H]1O
9.36 | 7.54 | 8.30 | 5.21 | Nc1nc(C#C[C@H](O)c2ccccc2)nc2c1ncn2[C@@H]1O[C@H](CO)[C@@H](O)[C@H]1O
6.86 | 6.57 | 8.64 | 4.00 | CCCCC#Cc1nc(NCC)c2ncn([C@@H]3O[C@H](CO)[C@@H](O)[C@H]3O)c2n1
9.17 | 8.74 | 8.85 | 6.04 | Nc1nc(C#C[C@@H](O)c2ccccc2)nc2c1ncn2[C@@H]1O[C@H](CO)[C@@H](O)[C@H]1O
8.77 | 7.37 | 8.82 | 6.02 | CC(C)Nc1nc(C#C[C@@H](O)c2ccccc2)nc2c1ncn2[C@@H]1O[C@H](CO)[C@@H](O)[C@H]1O
9.17 | 8.15 | 8.48 | 5.62 | Nc1nc(C#CC(O)c2ccccc2)nc2c1ncn2[C@@H]1O[C@H](CO)[C@@H](O)[C@H]1O (some centres not stated)
5.93 | 5.35 | 8.31 | < 4.00 | CCNc1nc(C#Cc2ccccc2)nc2c1ncn2C1O[C@H](CO)[C@@H](O)[C@H]1O (some centres not stated)
8.08 | 6.56 | 9.12 | 5.57 | CNc1nc(C#CC(O)c2ccccc2)nc2c1ncn2[C@@H]1O[C@H](CO)[C@@H](O)[C@H]1O (some centres not stated)
6.25 | 6.21 | 8.21 | < 4.00 | CCNC(=O)[C@H]1O[C@@H](n2cnc3c(N)nc(C#Cc4ccccc4)nc32)[C@H](O)[C@@H]1O
8.57 | 7.03 | 9.01 | 5.77 | CCNc1nc(C#CC(O)c2ccccc2)nc2c1ncn2[C@@H]1O[C@H](CO)[C@@H](O)[C@H]1O (some centres not stated)
